Paper PMC8436411 (ACS Medicinal Chemistry Letters, 2021)
Values after ≈ are worked out from the molar mass of the structure shown. Values joined by “and” are separate entries in the source; they are usually repeats but may differ in a detail not shown here. Identical values can stand only once. Like-named read-outs stand apart in the source and are kept apart here.

What was measured:
[1] = tested on: Enterococcus faecalis DRK 057 (ATCC 29212); details: Table S3; ref 10 (SI); cited from earlier work
MRSA (QA-11.7) [2] = details: Table S3; ref 10 (SI); cited from earlier work
S. aureus (ATCC 29213) [3] = details: Table S3; ref 10 (SI); cited from earlier work
[4] = tested on: Pseudomonas aeruginosa RDK 184 (DSM 939); details: cited from earlier work; for MIC P. aeruginosa RDK 184 (DSM 939): Table S3, ref 10 (SI)
[5] = tested on: Streptococcus agalactiae RDK 047 (QA-990/02); details: Table S3; ref 10 (SI); cited from earlier work
[6] = tested on: E. coli N43 (CGSC no. 5583); details: Table S3; AcrA knockout strain; ref 10 (SI); cited from earlier work
E. coli D22 [7] = details: Table S3; mutation in the lpxC gene that increases membrane permeability; ref 10 (SI); cited from earlier work
E. coli (ATCC 25922) [8] = details: Table S3; ref 10 (SI); cited from earlier work
[9] = tested on: Salmonella alachua RDK 030c (QA-1482/04); details: Table S3; ref 10 (SI); cited from earlier work
[10] = tested on: Salmonella alachua RDK 030c (QA-1482/04); experiment: microbe, parasite or virus in culture
Description: (§1) The in vitro antibacterial activity, expressed as minimum inhibitory concentration (MIC), was determined against broad spectrum of bacteria, including Gram-positive (Staphylococcus aureus, methicillin-resistant Staphylococcus aureus, Streptococcus agalactiae, and Enterococcus faecalis) and Gram-negative strains (Escherichia coli, Salmonella alachua, Pseudomonas aeruginosa, and Klebsiella pneumoniae), enriched with various MRSA strains resistant to various antibiotics as well as E. coli strains with increased membrane permeability and lack of efflux pump, as well. […]
(§2) The minimum inhibitory concentrations (MICs) were determined using the broth micro-dilution method in 96-well plate format according to the Clinical and Laboratory Standards Institute […]
(§3) guidelines8 and European Committee on Antimicrobial Susceptibility Testing recommendations9. The bacterial suspension of the specific bacterial strain equivalent to the 0.5 McFarland turbidity standard was diluted with cation-adapted Mueller Hinton broth with TES (Thermo Fisher Scientific) to obtain a […]
(§4) The compounds dissolved in DMSO and inoculum were mixed together and incubated for 20 h at 35 °C.

[11] = tested on: Pseudomonas aeruginosa RDK 184 (DSM 939); experiment: microbe, parasite or virus in culture
Description: as §1, §2, §3, §4

MRSA (QA-11.7) [12] = experiment: microbe, parasite or virus in culture; details: Staphylococcus aureus, read-out: MIC MRSA (QA-11.7)
Description: as §1, §2, §3, §4

E. coli D22 [13] = experiment: microbe, parasite or virus in culture; details: Escherichia coli
Description: as §1, §2, §3, §4

[14] = tested on: E. coli N43 (CGSC no. 5583); experiment: microbe, parasite or virus in culture; details: Escherichia coli
Description: as §1, §2, §3, §4

Klebsiella pneumoniae = experiment: microbe, parasite or virus in culture
Description: as §1, §2, §3, §4

MRSA (QA-12.1) = experiment: microbe, parasite or virus in culture; details: Staphylococcus aureus, read-out: MIC MRSA (QA-12.1)
Description: as §1, §2, §3, §4

[15] = tested on: Streptococcus agalactiae RDK 047 (QA-990/02); experiment: microbe, parasite or virus in culture
Description: as §1, §2, §3, §4

E. coli (ATCC 25922) [16] = experiment: microbe, parasite or virus in culture; details: Escherichia coli, ATCC25922, read-out: MIC E. coli (ATCC 25922)
Description: as §1, §2, §3, §4

S. aureus (ATCC 29213) [17] = experiment: microbe, parasite or virus in culture; details: Staphylococcus aureus, ATCC29213, read-out: MIC S. aureus (ATCC 29213)
Description: as §1, §2, §3, §4

[18] = tested on: Enterococcus faecalis DRK 057 (ATCC 29212); experiment: microbe, parasite or virus in culture
Description: as §1, §2, §3, §4

S. aureus DNA gyrase = biological target: T1, S. aureus DNA gyrase (Staphylococcus aureus, UniProt P20831); experiment: DNA gyrase supercoiling inhibition assay (S. aureus); format: biochemical; details: mean of two independent measurements ± SD
T1 construct: purchased Inspiralis (Norwich, UK)
Description: We synthesized and biologically evaluated ten new compounds. We determined their inhibitory activity, expressed as IC50 values, on both Gram-positive S. aureus and Gram-negative E. coli bacterial enzymes (DNA gyrase and topo IV), respectively. The in vitro antibacterial activity, expressed as minimum inhibitory concentration (MIC), was determined against broad spectrum of bacteria, including Gram-positive (Staphylococcus aureus, methicillin-resistant Staphylococcus aureus, Streptococcus agalactiae, and Enterococcus faecalis) and Gram-negative strains (Escherichia coli, Salmonella alachua, Pseudomonas aeruginosa, and Klebsiella pneumoniae), enriched with various MRSA strains resistant to various antibiotics as well as E. coli strains with increased membrane permeability and lack of efflux pump, as well. Furthermore, the selectivity of compounds for bacterial enzyme compared to the orthologous human topoisomerase IIα was also considered. The in vitro safety profile was determined by cytotoxicity assessment on human umbilical vein endothelial cell lines (HUVEC) and HepG2 liver cancer cell lines.
Determination of DNA gyrase and topoisomerase IV inhibitory activities
To determine the IC50 values of the compounds, a Gyrase Supercoiling High Throughput Plate assay kit and a TopoIV Relaxation High Throughput Plate assay kit, commercially available from Inspiralis (Norwich, UK), were used for S. aureus and E. coli. The assays were performed on black streptavidin-coated 96-well microtiter plates (Thermo Scientific Pierce, Norwich, UK) and the wells were first […]
BSA and 0.05% [v/v] Tween-20). Biotinylated oligonucleotide diluted with the wash buffer was then immobilized in each well and the excess was removed with the wash buffer. 1.5 U of the enzyme S. aureus or E. coli DNA gyrase (topoIV) was incubated together with 0.75 μg of relaxed (supercoiled) pNO1 plasmid as substrate in the presence of 3 μl inhibitor solution in 10% DMSO and 0.008% Tween-20 at 37°C for 30 min in a final reaction volume of 30 μl in the assay buffer (S. aureus DNA gyrase: 40 mM HEPES.KOH (pH 7.6), 10 mM magnesium acetate, 10 mM DTT, 2 mM ATP, 500 mM potassium glutamate and 0.05 mg/ml albumin; E. coli DNA gyrase: 35 mM Tris.HCl (pH 7.5), 24 […]
mg/ml albumin; S. aureus topo IV: 50 mM Tris.HCl (7.5), 5 mM MgCl 2, 5 mM DTT, 1.5 mM ATP, 350 mM potassium glutamate and 0.05 mg/ml albumin; E. coli topo IV: 40 mM HEPES.KOH (pH 7.6), 100 mM potassium glutamate, 10 mM magnesium acetate, 10 mM DTT, 1 mM ATP and 50 μg/ml albumin). The reaction was stopped by adding the TF buffer (50 mM NaOAc (pH 4.7), 50 mM NaCl and 50 mM MgCl2) to allow triplex formation (biotin oligonucleotide plasmid) for another 30 min. Finally, the unbound plasmid was washed off using the TF buffer and the Promega Diamond dye was added to T10 buffer (10 mM Tris-HCl (pH 8.0), 1 mM EDTA) solution. After 15 min the solution […]
Two inhibitor concentrations of 100 and 1 μM were used for pre-screening. The IC 50 values […]
(IC50) was calculated by nonlinear regression-based fitting of the inhibition curves using the log [inhibitor] versus response-variable slope (four parameters) – symmetrical equation, in GraphPad Prism 6.0 software (GraphPad Software, CA, USA). The IC50 value represents the average of two independent measurements.
The minimum inhibitory concentrations (MICs) were determined using the broth micro-dilution method in 96-well plate format according to the Clinical and Laboratory Standards Institute

Human topoisomerase IIα = Human topoisomerase IIα (Homo sapiens, UniProt P11388); experiment: Human topoisomerase IIα residual activity; format: biochemical; details: residual activity at 10 μM compound; mean ± SD, two independent experiments; read-out: Human topoisomerase IIα (%RA)
[19] = read-out: MIC S. alachua RDK 030c (QA-1482/04)
[20] = read-out: MIC Salmonella alachua RDK 030c (QA-1482/04)
[21] = DSM939, read-out: MIC P. aeruginosa RDK 184 (DSM 939)
[22] = DSM939, read-out: MIC Pseudomonas aeruginosa RDK 184 (DSM 939)
[23] = read-out: MIC E. coli N43 (CGSC no. 5583)
[24] = read-out: MIC E. coli N43 (CGSC# 5583)
[25] = read-out: MIC Klebsiella pneumoniae
[26] = read-out: MIC S. agalactiae RDK 047 (QA-990/02)
[27] = read-out: MIC Streptococcus agalactiae RDK 047 (QA-990/02)
[28] = ATCC29212, read-out: MIC E. faecalis DRK 057 (ATCC 29212)
[29] = ATCC29212, read-out: MIC Enterococcus faecalis DRK 057 (ATCC 29212)

Chain of Human topoisomerase IIα (P11388 whole entry): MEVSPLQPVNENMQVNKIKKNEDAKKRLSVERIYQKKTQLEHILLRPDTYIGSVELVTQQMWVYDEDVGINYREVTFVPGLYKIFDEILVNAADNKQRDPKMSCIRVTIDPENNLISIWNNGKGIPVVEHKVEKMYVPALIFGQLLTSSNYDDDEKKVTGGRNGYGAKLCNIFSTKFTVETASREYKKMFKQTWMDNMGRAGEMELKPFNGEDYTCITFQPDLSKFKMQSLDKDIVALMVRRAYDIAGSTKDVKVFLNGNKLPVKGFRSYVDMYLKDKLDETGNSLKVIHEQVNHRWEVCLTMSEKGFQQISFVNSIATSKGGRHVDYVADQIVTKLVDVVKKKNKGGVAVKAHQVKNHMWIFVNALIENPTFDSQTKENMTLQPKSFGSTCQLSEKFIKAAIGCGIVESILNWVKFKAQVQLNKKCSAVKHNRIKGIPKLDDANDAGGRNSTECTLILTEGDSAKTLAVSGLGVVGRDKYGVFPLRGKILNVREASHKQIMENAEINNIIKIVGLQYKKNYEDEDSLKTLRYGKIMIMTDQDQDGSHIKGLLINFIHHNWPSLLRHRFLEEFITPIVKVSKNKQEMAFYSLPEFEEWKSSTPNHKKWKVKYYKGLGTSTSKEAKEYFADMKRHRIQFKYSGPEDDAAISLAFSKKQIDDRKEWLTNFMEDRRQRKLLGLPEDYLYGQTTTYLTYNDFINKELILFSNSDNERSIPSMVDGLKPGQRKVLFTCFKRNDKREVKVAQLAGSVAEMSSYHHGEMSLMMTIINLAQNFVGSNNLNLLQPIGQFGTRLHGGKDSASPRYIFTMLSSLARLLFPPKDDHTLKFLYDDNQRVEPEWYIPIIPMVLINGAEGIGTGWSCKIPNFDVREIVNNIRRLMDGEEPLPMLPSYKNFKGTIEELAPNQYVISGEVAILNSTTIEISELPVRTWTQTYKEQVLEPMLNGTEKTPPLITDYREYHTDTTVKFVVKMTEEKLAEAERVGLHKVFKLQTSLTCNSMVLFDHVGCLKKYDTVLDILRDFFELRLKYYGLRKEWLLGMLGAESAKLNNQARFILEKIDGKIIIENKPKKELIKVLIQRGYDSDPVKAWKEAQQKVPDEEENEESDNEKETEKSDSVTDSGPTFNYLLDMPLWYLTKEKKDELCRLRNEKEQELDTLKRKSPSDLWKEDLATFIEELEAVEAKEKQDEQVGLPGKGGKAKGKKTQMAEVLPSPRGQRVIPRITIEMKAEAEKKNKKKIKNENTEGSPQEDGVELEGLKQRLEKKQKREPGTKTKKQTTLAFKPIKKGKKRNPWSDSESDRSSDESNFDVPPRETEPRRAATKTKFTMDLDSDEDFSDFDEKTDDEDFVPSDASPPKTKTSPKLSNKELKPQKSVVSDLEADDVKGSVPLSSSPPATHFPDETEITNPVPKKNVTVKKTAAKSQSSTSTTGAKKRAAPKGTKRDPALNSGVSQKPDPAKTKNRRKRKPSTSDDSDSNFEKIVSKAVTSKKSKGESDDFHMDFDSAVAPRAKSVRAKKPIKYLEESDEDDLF
T1 sequence (P20831 whole entry, looked up): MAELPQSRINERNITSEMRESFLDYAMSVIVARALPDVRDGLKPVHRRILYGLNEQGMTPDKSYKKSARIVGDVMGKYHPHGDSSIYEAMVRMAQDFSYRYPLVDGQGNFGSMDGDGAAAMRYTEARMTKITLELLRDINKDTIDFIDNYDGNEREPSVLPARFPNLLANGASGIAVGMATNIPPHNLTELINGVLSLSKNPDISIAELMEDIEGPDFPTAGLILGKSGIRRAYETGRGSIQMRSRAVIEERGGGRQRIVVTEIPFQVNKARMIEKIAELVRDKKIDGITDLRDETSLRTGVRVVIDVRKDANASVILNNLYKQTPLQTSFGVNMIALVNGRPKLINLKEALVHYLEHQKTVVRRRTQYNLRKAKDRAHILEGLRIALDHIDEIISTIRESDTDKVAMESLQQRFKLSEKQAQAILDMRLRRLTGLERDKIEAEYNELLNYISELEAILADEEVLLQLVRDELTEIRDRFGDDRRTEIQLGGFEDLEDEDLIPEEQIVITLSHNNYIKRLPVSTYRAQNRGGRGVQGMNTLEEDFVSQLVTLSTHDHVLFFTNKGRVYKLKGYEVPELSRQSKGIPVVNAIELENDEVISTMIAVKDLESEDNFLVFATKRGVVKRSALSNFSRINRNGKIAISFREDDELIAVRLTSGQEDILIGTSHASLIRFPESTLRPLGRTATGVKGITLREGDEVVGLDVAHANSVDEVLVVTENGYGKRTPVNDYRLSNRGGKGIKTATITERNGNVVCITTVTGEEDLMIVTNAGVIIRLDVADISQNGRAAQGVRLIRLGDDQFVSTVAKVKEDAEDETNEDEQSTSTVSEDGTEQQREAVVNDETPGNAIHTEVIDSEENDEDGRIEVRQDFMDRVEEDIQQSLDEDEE

SMILES	MIC MRSA (QA-11.7) (MRSA (QA-11.7) [2])	MIC S. aureus (ATCC 29213) (S. aureus (ATCC 29213) [3])	MIC P. aeruginosa RDK 184 (DSM 939) [4]	MIC S. agalactiae RDK 047 (QA-990/02) [5]	MIC E. coli N43 (CGSC# 5583) [6]	MIC E. coli D2 (E. coli D22 [7])	MIC E. coli (ATCC 25922) (E. coli (ATCC 25922) [8])	MIC S. alachua RDK 030c (QA-1482/04) [9]	MIC [10, 19]	MIC [10, 20]	MIC [11, 21]	MIC [11, 22]	MIC (MRSA (QA-11.7) [12])	MIC (E. coli D22 [13]; D22, read-out: MIC E. coli D2)	MIC (E. coli D22 [13]; D22, read-out: MIC E. coli D22)	MIC [14, 23]	MIC [14, 24]	MIC (Klebsiella pneumoniae; read-out: MIC K. pneumoniae)	MIC (Klebsiella pneumoniae; [25])	MIC (MRSA (QA-12.1))	further results
COc1ccc2nccc(CCN3CCC(NCc4ccc(Cl)cc4)CC3)c2n1 [Compound 1]	1.22 µM (≈ 0.501 µg/mL)	0.304 µM (≈ 0.125 µg/mL)	> 311 µM	2.43 µM (≈ 0.999 µg/mL)	1.22 µM (≈ 0.501 µg/mL)	4.87 µM (≈ 2 µg/mL)	9.73 µM (≈ 4 µg/mL)	77.9 µM (≈ 32 µg/mL)													MIC E. faecalis DRK 057 (ATCC 29212) [1]: 2.43 µM (≈ 0.999 µg/mL); MIC Pseudomonas aeruginosa RDK 184 (DSM 939) [4]: >128 mg/L
COc1ccc2nccc(CCN3CCC(NCc4ccc(Br)cc4)CC3)c2n1 [Compound 2]	0.136 µM (≈ 0.0619 µg/mL)	0.068 µM (≈ 0.031 µg/mL)	281 µM (≈ 128 µg/mL)	1.098 µM (≈ 0.5 µg/mL)	0.274 µM (≈ 0.125 µg/mL)	0.274 µM (≈ 0.125 µg/mL)	4.39 µM (≈ 2 µg/mL)	35.1 µM (≈ 16 µg/mL)													MIC E. faecalis DRK 057 (ATCC 29212) [1]: 2.20 µM (≈ 1 µg/mL)
COc1ccc2nccc(CCN3CCC(NCc4ccc(I)cc4)CC3)c2n1 [Compound 3]	0.016 µM (≈ 0.00804 µg/mL)	0.016 µM (≈ 0.00804 µg/mL)	63.7 µM (≈ 32 µg/mL)	0.249 µM (≈ 0.125 µg/mL)	0.155 µM (≈ 0.0779 µg/mL)	0.249 µM (≈ 0.125 µg/mL)	3.98 µM (≈ 2 µg/mL)	15.9 µM (≈ 7.99 µg/mL)													
COc1ccc2nccc(CCN3CCC(NCc4ccc(I)c(F)c4F)CC3)c2n1 [Compound 11]									14.9 µM	8 mg/L	119 µM	64 mg/L	0.058 µM and 0.031 µg/mL	0.23 µM	0.125 mg/L	0.031 mg/L	0.058 µM	59.4 µM	32 mg/L	0.115 µM and 0.062 µg/mL	MIC [15, 26]: 0.929 µM; MIC [15, 27]: 0.5 mg/L; MIC (E. coli (ATCC 25922) [16]): 3.71 µM and 2 µg/mL; MIC (S. aureus (ATCC 29213) [17]): 0.015 µM and 0.008 µg/mL; MIC [18, 28]: 0.929 µM; MIC [18, 29]: 0.5 mg/L; IC50 (S. aureus DNA gyrase): 0.009 ± 0.001 µM; remaining activity at 10 µM (Human topoisomerase IIα): 94.9 ± 5.67%
COc1ccc2nccc(CCN3CCC(NCc4ccc(Cl)nc4)CC3)c2n1 [Compound 12]									> 311 µM	> 128 mg/L	> 311 µM	> 128 mg/L	2.43 µM and 1 µg/mL	9.71 µM	4 mg/L	8 mg/L	19.4 µM	> 311 µM	> 128 mg/L	4.86 µM and 2 µg/mL	MIC [15, 26]: 155 µM; MIC [15, 27]: 64 mg/L; MIC (E. coli (ATCC 25922) [16]): 77.7 µM and 32 µg/mL; MIC (S. aureus (ATCC 29213) [17]): 2.43 µM and 1 µg/mL; MIC [18, 28]: 77.7 µM; MIC [18, 29]: 32 mg/L; IC50 (S. aureus DNA gyrase): 0.283 ± 0.009 µM; remaining activity at 10 µM (Human topoisomerase IIα): 99.7 ± 1.48%
COc1ccc2nccc(CCN3CCC(NCc4ccc(Cl)cn4)CC3)c2n1 [Compound 13]									> 311 µM	> 128 mg/L	> 311 µM	> 128 mg/L	0.607 µM and 0.25 µg/mL	38.8 µM	16 mg/L	8 mg/L	19.4 µM	> 311 µM	> 128 mg/L	0.607 µM and 0.25 µg/mL	MIC [15, 26]: 19.4 µM; MIC [15, 27]: 8 mg/L; MIC (E. coli (ATCC 25922) [16]): 77.7 µM and 32 µg/mL; MIC (S. aureus (ATCC 29213) [17]): 0.303 µM and 0.125 µg/mL; MIC [18, 28]: 9.71 µM; MIC [18, 29]: 4 mg/L; IC50 (S. aureus DNA gyrase): 0.123 ± 0.019 µM; remaining activity at 10 µM (Human topoisomerase IIα): 99.36 ± 0.34%
